Experiment [1] relates to SK-OV-3 (PI3Kα H1047R). Put plainly: pAKT (T308) ELISA assay, SK-OV-3. The class given is cell-based. The note with it: Homo sapiens, PI3KαH1047R, IGF1, read-out: Cellular pAKT (T308) IC50 SK-OV-3. As for the experimental part:
(§1) In another embodiment, the pAKT ELISA Assay was performed by seeding cells onto 96-well plates (Corning, 3904) in their respective growth media at the densities listed in Table 3. Cells were incubated at 37° C., 5% CO2 for 48 h (except MDA-MB-453 cells which were cultured in the absence of CO2). Compounds were serially diluted in DMSO and subsequently diluted in serum-free DMEM. Test compounds were added to cells in serum-free DMEM at a final concentration of 0.3% DMSO and incubated for 3 h. Cells were lysed with 130 μL of ice-cold RIPA lysis buffer (50 mM Tris-HCl, pH 7.5; 0.5% sodium deoxycholic acid; 1% Triton X-100; 0.1% SDS; 150 mM NaCl) with protease and phosphatase inhibitors (1 mM EDTA, 1 mM NaF, 20 mM β-glycerophosphate, 1 mM Na-orthovanadate, Complete-Mini EDTA-free, Roche, 11836170001, and Phosphatase Inhibitor Cocktail I, Sigma, P2850), directly in 96-well plates. Cells were lysed on ice for 60-120 min at 4° C. The supernatants were added directly to capture ELISA plates previously pre-coated with rabbit anti-AKT capture antibody. […] The wells were measured for luminescence using a Wallac plate reader at wavelength of 560 nm. After normalization of pAKT signal to total AKT1 signal, IC50 values were determined relative to the DMSO-treated control.

Experiment [2] has as its system T-47D cells (PI3Kα-H1047R mutant). Put plainly: pAKT (T308) ELISA assay, T-47D. The experiment is classed as cell-based. Particulars: Homo sapiens, T47D. As for the experimental part:
as §1

For experiment [3], the target named is mTOR/GbL/Raptor (mTORC1) (Homo sapiens, UniProt P42345). Briefly: mTOR/GbL/Raptor (mTORC1) ELISA assay. The class given is biochemical. As for the experimental part:
The measurement of mTORC1 enzyme activity was performed in an ELISA assay format following the phosphorylation of 4E-BP1 protein. All experiments were performed in the 384-well format. Generally, 0.5 μL DMSO containing varying concentrations of the test compound was mixed with 15 μL enzyme solution. Kinase reactions were initiated with the addition of 15 μL of substrates-containing solution. The assay conditions were as follows; 0.2 nM mTORC1, 10 μM ATP and 50 nM NHis-tagged 4E-BP1 in 20 mM Hepes, pH 7.2, 1 mM DTT, 50 mM NaCl, 10 mM MnCl2, 0.02 mg/mL BSA, 0.01% CHAPS, 50 mM β-glycerophosphate. Following an incubation of 120 minutes at ambient temperature, 20 μL of the reaction volume was transferred to a Ni-Chelate-coated 384-well plate. The binding step of the 4E-BP1 protein proceeded for 60 minutes, followed by washing 4 times each with 50 μL of Tris-buffered saline solution (TBS). Anti-phospho-4E-BP1 rabbit-IgG (20 μL, 1:5000) in 5% BSA-TBST (0.2% Tween-20 in TBS) was added and further incubated for 60 minutes. Incubation with a secondary HRP-tagged anti-IgG was similarly performed after washing off the primary antibody (4 washes of 50 μL). Following the final wash step with TBST, 20 μL of SuperSignal ELISA Femto (Pierce Biotechnology) was added and the luminescence measured using an EnVision plate reader.

The test system of experiment [4] is HCT 116 (PI3Kα H1047R). Briefly: pAKT (T308) ELISA assay, HCT 116. The experiment is classed as cell-based. Particulars: Homo sapiens, PI3KαH1047R, IGF1, read-out: Cellular pAKT (T308) IC50 HCT 116. As for the experimental part:
as §1

The target in experiment [5] is PI3Kα (Homo sapiens, UniProt P42336). Briefly: PI3K biochemical assay (ATP consumption, luciferase-luciferin). As for the experimental part: PI3Kα activity is measured as the percent of ATP consumed following the kinase reaction using luciferase-luciferin-coupled chemiluminescence. Reactions were conducted in 384-well white, medium binding microtiter plates (Greiner). Kinase reactions were initiated by combining test compounds, ATP, substrate (PIP2), and kinase in a 20 μL volume in a buffer solution. The standard PI3Kalpha assay buffer is composed 50 mM Tris, pH 7.5, 1 mM EGTA, 10 mM MgCl2, 1 mM DTT and 0.03% CHAPS. The standard assay concentrations for enzyme, ATP, and substrate are 1.5 nM, 1 μM, and 10 μM, respectively. The reaction mixture was incubated at ambient temperature for approximately 2 h. Following the kinase reaction, a 10 μL aliquot of luciferase-luciferin mix (Promega Kinase-Glo) was added and the chemiluminescence signal measured using a Victor2 plate reader (Perkin Elmer). Total ATP consumption was limited to 40-60% and IC50 values of control compounds correlate well with literature references. Substituting PI3Kα with PI3Kβ, PI3Kγ, or PI3Kδ, the inhibitory activity of the compounds for the other isoforms of I3K were measured.
Sequence of PI3Kα (P42336 whole entry): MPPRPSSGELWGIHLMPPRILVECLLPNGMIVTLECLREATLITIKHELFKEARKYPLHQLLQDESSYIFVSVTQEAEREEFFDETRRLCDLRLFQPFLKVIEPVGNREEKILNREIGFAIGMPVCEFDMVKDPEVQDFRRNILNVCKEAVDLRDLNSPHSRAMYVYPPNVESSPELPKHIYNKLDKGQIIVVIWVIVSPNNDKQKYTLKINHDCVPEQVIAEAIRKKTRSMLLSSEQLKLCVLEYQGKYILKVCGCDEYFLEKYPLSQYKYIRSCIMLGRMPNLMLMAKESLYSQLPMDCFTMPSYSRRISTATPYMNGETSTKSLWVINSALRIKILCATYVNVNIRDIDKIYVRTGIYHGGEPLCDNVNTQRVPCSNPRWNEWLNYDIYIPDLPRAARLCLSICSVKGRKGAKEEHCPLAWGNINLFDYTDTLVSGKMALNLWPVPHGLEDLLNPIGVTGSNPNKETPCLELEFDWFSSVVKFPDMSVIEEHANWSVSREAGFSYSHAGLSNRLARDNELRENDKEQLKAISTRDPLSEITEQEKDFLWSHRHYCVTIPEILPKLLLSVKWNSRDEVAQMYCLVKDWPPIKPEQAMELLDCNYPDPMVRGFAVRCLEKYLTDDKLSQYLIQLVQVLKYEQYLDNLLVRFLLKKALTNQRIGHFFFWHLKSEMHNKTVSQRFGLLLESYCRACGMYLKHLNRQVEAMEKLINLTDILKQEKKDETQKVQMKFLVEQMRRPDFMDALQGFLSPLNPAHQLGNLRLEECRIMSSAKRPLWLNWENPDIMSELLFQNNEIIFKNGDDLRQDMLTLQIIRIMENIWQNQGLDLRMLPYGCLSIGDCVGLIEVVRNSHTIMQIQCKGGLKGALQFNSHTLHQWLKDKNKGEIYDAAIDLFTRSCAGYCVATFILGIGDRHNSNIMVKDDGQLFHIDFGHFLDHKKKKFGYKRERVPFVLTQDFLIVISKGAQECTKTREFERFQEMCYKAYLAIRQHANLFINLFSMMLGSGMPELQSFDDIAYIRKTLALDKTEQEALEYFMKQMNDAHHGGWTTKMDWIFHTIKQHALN
Sequence of PI3Kα (P27986 whole entry partner): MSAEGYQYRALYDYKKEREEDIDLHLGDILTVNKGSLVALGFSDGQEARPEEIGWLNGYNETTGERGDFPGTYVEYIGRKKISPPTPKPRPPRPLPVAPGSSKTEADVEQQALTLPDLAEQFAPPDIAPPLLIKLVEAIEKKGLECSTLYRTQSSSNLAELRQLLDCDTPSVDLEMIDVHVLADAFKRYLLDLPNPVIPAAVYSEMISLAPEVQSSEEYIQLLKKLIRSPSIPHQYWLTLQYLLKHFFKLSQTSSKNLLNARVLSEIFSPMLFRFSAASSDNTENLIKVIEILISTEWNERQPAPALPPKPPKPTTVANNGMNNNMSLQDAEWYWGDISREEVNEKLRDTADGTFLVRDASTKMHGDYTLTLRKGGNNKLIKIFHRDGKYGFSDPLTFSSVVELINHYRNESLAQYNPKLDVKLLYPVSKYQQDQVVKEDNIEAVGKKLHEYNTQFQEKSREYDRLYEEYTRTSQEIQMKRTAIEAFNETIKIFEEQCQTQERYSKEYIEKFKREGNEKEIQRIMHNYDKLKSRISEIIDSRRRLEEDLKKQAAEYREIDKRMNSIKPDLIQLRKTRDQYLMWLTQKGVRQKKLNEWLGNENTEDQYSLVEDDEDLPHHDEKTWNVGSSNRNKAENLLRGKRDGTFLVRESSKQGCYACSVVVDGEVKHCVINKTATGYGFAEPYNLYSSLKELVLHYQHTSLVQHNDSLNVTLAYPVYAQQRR

For experiment [6], the system named is NCI-H460 (PI3K-E545K/KRAS-Q61H). Put plainly: pAKT (T308) ELISA assay, NCI-H460. The class given is cell-based. Particulars: Homo sapiens, PI3KαE545K, read-out: Cellular pAKT (T308) IC50 NCI-H460. As for the experimental part:
as §1

Experiment [7] has as its system MDA-MB-453 (PI3Kα H1047R). Briefly: pAKT (T308) ELISA assay, MDA-MB-453. The experiment is classed as cell-based. Particulars: Homo sapiens, PI3KαH1047R, hereg, read-out: Cellular pAKT (T308) IC50 MDA-MB-453. As for the experimental part:
as §1

Where two headings read alike, the source gives them in different places.

This is an account of results in US20140066431A1, “Benzoxazepines as Inhibitors of PI3K/mTOR and Methods of Their Use and Manufacture” (Exelixis, Inc., priority 2010, published 2014).

`Cc1cc(C(C)Nc2ccccc2)c2nc(N3CCOCC3)cc(=O)n2c1` (stereo not shown) [TGX-221, 7-methyl-2-(4-morpholinyl)-9-[1-(phenylamino)ethyl]-4H-pyrido[1,2-a]pyrimidin-4-one]: the 50% inhibitory concentration (IC50) in experiment [1] was more than 30 µM; in experiment [2] (IGF1 stimulation, Table 5, read-out: pAKT (T308) IC50 T-47D PI3Kα H1047R IGF1), 27.9 µM; in experiment [2] (PI3KαH1047R, IGF1, Table 6, read-out: Cellular pAKT (T308) IC50 T-47D) it was 27.9 µM; in experiment [3] (4EBP1 as substrate for mTOR/GbL/raptor kinase, read-out: biochemical IC50 mTOR), 10.9 µM; in experiment [3] (Table 5, read-out: Biochemical IC50 mTOR) it was 10.9 µM; in experiment [4], 26.4 µM. The concentration for half-maximal inhibition (IC50) is 1.78 µM in experiment [5] (PIP2 as substrate, read-out: PI3K biochemical IC50 PI3Kα); 1.78 µM in experiment [5] (Table 5, read-out: Biochemical IC50 PI3Kα); more than 30 µM in experiment [6]; more than 30 µM in experiment [7].
